Source: US20260263429A1, “INHIBITORS OF CA 2+/CALMODULIN-DEPENDENT PROTEIN KINASE II (CAMKII) THAT DO NOT INHIBIT LONG-TERM POTENTIATION (LTP) INDUCTION AND THERAPEUTIC USES THEREOF” (The Regents of the University of Colorado, A Body Corporate, priority 2023, published 2026)

Key:
[1] = tested on: LTP at the hippocampal CA3 to CA1 synapse; experiment: LTP induction by HFS, field recordings in acute hippocampal slices of wildtype mice; assay type: cell-based, mouse; details: tatCN21 5 μM; AS283 10 or 30 μM; 15 minutes before, washed out 5 minutes after LTP induction
Method: Long term potentiation (LTP) is induced by high frequency stimulation (HFS; 2×100 Hz. 10 sec interval, see Materials and Methods) of CA3-CA1 Schaffer collateral pathways in WT mice and is observed by an increase in slope of field excitatory post synaptic potentials (fEPSPs) that persists after the stimulus is removed. When testing the effect of certain agents on LTP induction (i.e., AS283 or tatCN21), slices were incubated with the agents for 15 minutes before LTP induction and washed out 5 minutes after LTP induction.
Hippocampal slice preparation. WT and mutant mouse hippocampal slices were prepared using P56-70 mice. Isoflurane anesthetized mice were rapidly decapitated, and the brain was dissected in ice-cold high sucrose solution containing 220 mM sucrose, 12 mM MgSO4, 10 mM glucose, 0.2 mM CaCl2), 0.5 mM KCl, 0.65 mM NaH2PO4, 13 mM
NaHCO3, and 1.8 mM ascorbate. […]
Extracellular field recordings. […] Data were analyzed using WinLTP software with slope calculated as the initial rise from 10 to 60% of response peak. […] Responses were recorded for 60 min after HFS. Change in slope was calculated as a ratio of the average slope of the 20 min baseline (before HFS). Bar graphs of % fEPSP slope were calculated by averaging the 50-60-minute timepoints post HFS and normalized to baseline.

[2] = tested on: LTP in CaMKII T286A slices; experiment: LTP induction in hippocampal slices from CaMKII T286A mutant mice; assay type: cell-based, mouse; details: 10 μM inhibitor
[3] = biological target: T1, CaMKII/GluN2B co-localization in HEK293 cells (Homo sapiens, UniProt Q9UQM7); experiment: Ionomycin-induced co-localization of GFP-CaMKII and mCherry-2BC in HEK293 cells; assay type: cell-based; details: 10 μM inhibitor
T1 construct: expressed in transfected cells; host or cells: HEK293 cells
Method: In a series of exemplary methods, an in vitro kinase assay was used where purified CaMKIIα is incubated at 30° C. with GST-GluA1 alongside ATP. CaMKIIα normally phosphorylates S831 on the GluA1 subunit and this phosphorylation can be measured as a readout of CaMKIIα enzymatic activity (see e.g., FIG. 8B). […] In another exemplary method, binding of purified CaMKIIα to immobilized GST-GluN2B-c was induced by Ca^2+/CaM in the presence of a vehicle (none), 4 mM ADP or with […] AS105. […] At the same time, two exemplary methods were performed to observe ionomycin or chemical LTP (cLTP) induced co-localization of CaMKII and GluN2B either in HEK293 cells co-expressing GFP-CaMKII and mCherry-2BC or dissociated rat hippocampal cultures expressing GFP-CaMKII and mCh-PSD95 intrabody. HEK293 cells, incubating with vehicle or 10 μM AS105, were subjected to ionomycin. Hippocampal cultures, also incubating with either vehicle or 10 μM AS105, were treated with a chemical LTP (cLTP) stimulus (e.g., 100 μM glutamate, 10 μM glycine for 45 seconds). Confocal microscopy images were taken before and after each stimulus.

T1 sequence (Q9UQM7 whole entry): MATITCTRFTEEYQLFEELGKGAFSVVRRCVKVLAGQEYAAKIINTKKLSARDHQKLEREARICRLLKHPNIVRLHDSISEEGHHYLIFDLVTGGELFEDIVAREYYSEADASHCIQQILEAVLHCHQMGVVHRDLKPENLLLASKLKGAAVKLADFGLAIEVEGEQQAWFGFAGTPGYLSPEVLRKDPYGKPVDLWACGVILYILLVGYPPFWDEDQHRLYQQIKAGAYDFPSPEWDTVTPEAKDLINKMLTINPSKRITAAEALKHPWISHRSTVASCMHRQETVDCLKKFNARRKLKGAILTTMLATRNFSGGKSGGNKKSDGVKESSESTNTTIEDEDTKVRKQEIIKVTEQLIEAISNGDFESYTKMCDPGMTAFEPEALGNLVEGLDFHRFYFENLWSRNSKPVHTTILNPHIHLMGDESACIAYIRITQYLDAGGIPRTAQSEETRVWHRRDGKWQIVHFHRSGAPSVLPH
T1 sequence (Q13224 836-1484 S1303A partner limits assumed): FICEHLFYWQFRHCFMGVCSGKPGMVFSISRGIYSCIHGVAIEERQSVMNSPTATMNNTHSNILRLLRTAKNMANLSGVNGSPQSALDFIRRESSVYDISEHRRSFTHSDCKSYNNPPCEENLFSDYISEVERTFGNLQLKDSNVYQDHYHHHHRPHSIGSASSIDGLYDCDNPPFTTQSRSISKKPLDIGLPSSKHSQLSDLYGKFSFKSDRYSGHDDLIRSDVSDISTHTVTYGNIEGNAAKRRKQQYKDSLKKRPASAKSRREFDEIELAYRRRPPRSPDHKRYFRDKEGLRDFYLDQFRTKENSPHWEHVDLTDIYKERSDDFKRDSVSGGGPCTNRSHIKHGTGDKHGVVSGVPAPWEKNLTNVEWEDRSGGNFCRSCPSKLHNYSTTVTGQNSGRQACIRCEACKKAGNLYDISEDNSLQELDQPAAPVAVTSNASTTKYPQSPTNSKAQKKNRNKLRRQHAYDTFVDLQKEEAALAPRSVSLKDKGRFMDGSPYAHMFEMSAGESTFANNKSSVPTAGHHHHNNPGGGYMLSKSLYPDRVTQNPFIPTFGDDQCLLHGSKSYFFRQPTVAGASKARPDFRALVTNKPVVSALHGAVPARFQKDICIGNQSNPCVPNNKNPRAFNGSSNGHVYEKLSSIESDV

Compound: NCCNc1cccc(-c2ccnc3[nH]c4ccccc4c23)c1 [AS283]
- LTP induction in wildtype mouse slices [1]: failed to block LTP induction
- LTP induction in slices from T286A mutant mice [2]: enabled LTP
- ionomycin-induced CaMKII/GluN2B co-localization in HEK293 cells [3]: failed to inhibit CaMKII binding to GluN2B
